The values below come from patent US20240285643A1, “TREATING INFLUENZA USING SUBSTITUTED POLYCYCLIC PYRIDONE DERIVATIVES AND PRODRUGS THEREOF IN A SUBJECT HAVING INFLUENZA AND A SEVERE INFLUENZA CONDITION” (Shionogi & Co., Ltd., priority 2019, published 2024).

The conditions of series [1]: SD, rat, in vivo.
Details of series [2]: species or system rats. As to conditions: rat, po. The text has this:
FIGS. 1 and 2 show a result of measuring the plasma concentration of Compound (III) and Compound (II-6), respectively, after oral administration of prodrug Compound (II-6) to rats under non-fasting conditions.

For series [3], the system named is influenza type A virus A/Osaka/129/2009 and Streptococcus pneumoniae SR1326. In kind it is in vivo, BALB/c mice. As to conditions: for mice recovered from body weight loss and survived: BXA 10 mg/kg sc single dose, OSP 10 mg/kg po bid 5 days.
Another series can be described thus: clinical. As to conditions: human, in vivo. Here is the method: Patients were administered up to three doses of baloxavir marboxil separated by 3 days (i.e., Days 1, 4, and 7). […] Likewise, total drug exposure simulated on Day 7 area under the plasma concentration-time curve for a dosing interval (AUCtau) was not expected to exceed area under the concentration-time curve from Time 0 to infinity (AUCinf) of the TQT, regardless of dose.

For series [4], the system named is influenza type A virus A/Osaka/129/2009 and Streptococcus pneumoniae SR1326. It counts as in vivo, BALB/c mice. As to conditions: for mice survived: BXA 10 mg/kg sc single dose, OSP 10 mg/kg po bid 5 days, through 15 days.

Take `CC(=O)Oc1c2n(ccc1=O)N([C@@H]1c3ccccc3SCc3c1ccc(F)c3F)[C@@H]1COCCN1C2=O` [II-4]: the “BA (%)” value in series [1] came to 20.0%.
Take `COC(=O)OCOc1c2n(ccc1=O)N([C@@H]1c3ccccc3SCc3c1ccc(F)c3F)[C@@H]1COCCN1C2=O` [II-6, baloxavir marboxil]: in series [1], the “BA (%)” value is recorded as 14.9%. Moreover, in series [2], the “conversion of prodrug to Compound (III) in vivo” value is reported as “metabolized promptly to Compound (III)”.
In the case of `O=C1c2c(O)c(=O)ccn2N([C@@H]2c3ccccc3SCc3c2ccc(F)c3F)[C@@H]2COCCN12` [III, baloxavir], the “BA (%)” value in series [1] was determined as 4.2%. In addition, the “mice recovered from body weight loss and survived” value in series [3] is listed as 40%. For the same compound, in “clinical”, the Cmax worked out at 126 ng/mL and the half-life is approximately 70 h. The same compound came in with a mice survived in series [4] of 75%.
Take `CCOC(=O)C1=C[C@@H](OC(CC)CC)[C@H](NC(C)=O)[C@@H](N)C1` [OSP, Oseltamivir phosphate, reference compound]: in series [3], the “mice recovered from body weight loss and survived” value was “all mice died”. For the same compound, in series [3] (mouse, in vivo), the efficacy on survival entry is recorded as “not effective”. In addition, in series [4] (2-day delayed treatment, log rank test), the “survival time compared with vehicle treatment” value is on record as “significantly prolonged”. Besides, the mice survived result in series [4] is recorded as “all mice died”.
For baloxavir marboxil [II-6], the “body weight change after virus infection” value in series [4] (2-day delayed treatment, compared with vehicle, OSP or monotherapy) is recorded as “less reduction of body weight”.

A word on the Cmax: it is the peak of the concentration-time curve. As a reminder, the half-life is the time needed for the level to fall by half in the phase considered. Low readings indicate rapid decline, high ones slow decline.
